From article PMC8588271 (Molecules, 2021)
“Also recorded” adds a separate entry of the source.

Key:
[1] = DPPH radical scavenging assay (in vitro); details: 0.1 mM DPPH in MeOH, 30 min dark, room temperature, 540 nm
BACE-1 = biological target: T1, BACE-1 (Homo sapiens, UniProt P56817); assay: BACE-1 FRET inhibition assay; type: biochemical; details: FRET kit, 60 min room temperature, triplicate, tested up to 50 µM
T1 construct: purchased PanVera (Madison, WI, USA) / Thermo Fisher Scientific P2985
Method: The experiments were each performed in triplicates for all of the compounds.
A BACE-1 inhibition assay was conducted using a β-Secretase FRET kit (BACE-1, Thermo Fisher Sientific, San Diego, CA, USA) according to manufacturer instructions. […] The sample was diluted further in assay buffer (final concentrations of 50, 25, 12.5, 6.25, 3.12, 1.56, 0.78, 0.39, 0.2, and 0.1 µM in each well) and black 96-well microplates were mixed with 10 µL of BACE-1 substrate. Then, 10 µL of 3 × BACE-1 enzyme was added to each well to start the reaction. Plates were incubated at room temperature in the dark for 60 min. After incubation, 10 µL of 2.5 mM sodium acetate was added to each well to stop the reaction. Finally, multiwell spectrofluorometer instruments were used for a multimode plate reader (Multistkan^TM GO, Thermo Scientific, Waltham, MA, USA) at an excitation wavelength of 545 nm and an emission wavelength of 585 nm. The half-maximal inhibitory concentration (IC50) was calculated by plotting the obtained relative fluorescence unit per hour (RFU/h) against the logarithmic of the inhibitor concentration. All determinations were performed in triplicate.

RAW 264.7 cells [2] = assay: Nitric oxide production (Griess reagent) in LPS-stimulated cells; type: cell-based, murine; details: RAW 264.7, 1 h pretreatment, LPS 0.5 μg/mL 24 h
Method: (§1) The macrophage-like murine cell line RAW 264.7 (KCLB number 40071; Korean Cell Line Bank, Seoul, Korea) was cultured in Dulbecco’s Modified Eagle Medium (DMEM, Sigma-Aldrich, St. Louis, MO, USA) supplemented with 10% heat-inactivated fetal bovine serum (FBS, Invitrogen, Burlington, ON, Canada) and 1% (w/v) antibiotic–antimycotic solution (Invitrogen, Grand Island, NY, USA) at 5% CO2 and 37 °C.
Nitrite accumulation was used as an indicator of NO production in the medium, and the nitrite level was determined by assaying the culture supernatants for nitrite using the Griess reagent (1% sulfanilamide, 0.1% N-(1-naphathyl)-ethylenediamine dihydrochloride, and 5% phosphoric acid). […] Then, 100 μL of cell culture supernatants were mixed with 100 μL of Griess reagent in a 96-well plate. Sodium nitrite was used to generate a standard curve and the concentration of nitrite was then measured by the absorbance at 540 nm using a microplate reader. All determinations were performed in triplicate.

RAW 264.7 cells [3] = assay: MTT cytotoxicity assay; type: cell-based, murine; details: RAW 264.7, 24 h
Method: as §1
Cell cytotoxicity was determined by an MTT (3-(4,5)-dimethylthiazol-2-yl-2,5-diphenyltetrazolium bromide, Amresco, Solon, OH, USA) colorimetric assay. […] After incubation with test substances, MTT solutions (5 μL of a 5 mg/mL concentration in PBS) were added to the wells and incubated for 4 h at 37 °C. Then, treated with 100 μL of fresh DMSO to dissolve the crystals for 10 min, the cells were detected under a microplate reader (Thermo Scientific Inc., San Diego, CA, USA) to measure the absorbance at 570 nm. Relative cell viability was calculated by comparing the absorbance of the untreated control group. All experiments were performed in triplicate.

[4] = Stability in aqueous solution by HPLC purity; type: physicochemical; details: 10 mM in water, room temperature, HPLC UV 254 nm; ramalin started at 98%
Excerpt: Therefore, to improve its stability and BBB penetration capacity, its structure was modified by replacing the phenolic hydroxyl groups at position two with either a methyl group or a fluorine atom and by changing their positions. Thus, several derivatives were obtained. Specifically, RA-2Me, RA-3Me, and RA-4Me were synthesized by changing the position of the methyl group, which is an electron-donating group, and RA-25Me and RA-34Me, with two methyl groups on the phenyl ring, were synthesized by introducing an extra methyl group. To investigate the effect of fluorine atoms, which are electron-withdrawing as opposed to the methyl group, RA-2F, RA-4F, RA-24F, and RA-pentafluoride (PF) were also successfully synthesized. […] AD-related therapeutic agents are required to penetrate the BBB and reach their target. […] Given that ramalin and its derivatives are water-soluble low-molecular-weight compounds and that their lipophilicities and hydrophilicities balance out, their influence on AlogP, which indicates lipophilicity, was not significant. Additionally, given their PSA values (90 Å^2 < PSA < 140 Å^2), they are considered to be advantageous in terms of BBB penetration.

T1 sequence (P56817 46-501): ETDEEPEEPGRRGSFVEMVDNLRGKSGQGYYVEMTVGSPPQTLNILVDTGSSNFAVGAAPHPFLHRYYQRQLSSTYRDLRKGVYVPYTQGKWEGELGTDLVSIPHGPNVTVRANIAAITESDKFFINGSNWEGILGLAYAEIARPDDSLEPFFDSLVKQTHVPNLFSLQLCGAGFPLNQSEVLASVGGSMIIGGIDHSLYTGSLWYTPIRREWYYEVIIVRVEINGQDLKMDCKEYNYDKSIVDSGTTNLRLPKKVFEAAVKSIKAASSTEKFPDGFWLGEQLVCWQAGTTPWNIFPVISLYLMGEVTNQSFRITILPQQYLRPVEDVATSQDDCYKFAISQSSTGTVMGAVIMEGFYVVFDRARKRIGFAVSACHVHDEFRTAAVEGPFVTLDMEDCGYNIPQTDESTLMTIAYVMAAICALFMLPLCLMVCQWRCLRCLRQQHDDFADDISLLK

Row | Structure (SMILES) | IC50 [1] [µM] | IC50 (BACE-1) [µM] | NO inhibitory (anti-inflammatory) activity (RAW 264.7 cells [2]) | Cytotoxicity (cell viability, MTT) (RAW 264.7 cells [3]) | Purity after 14 h in water [4] [%]
1 | N[C@@H](CCC(=O)NNc1ccccc1F)C(=O)O [RA-2F, N^5-((2-Fluorophenyl)amino)-L-glutamine] | 4.42 | 18.8 ± 3.86 | concentration-dependent NO inhibition | – | –
2 | Cc1ccc(NNC(=O)CC[C@H](N)C(=O)O)cc1 [RA-4Me, N^5-(p-Tolylamino)-L-glutamine] | 3.91 | 13 ± 1.62 | weak anti-inflammatory effects | – | –
3 | Cc1ccccc1NNC(=O)CC[C@H](N)C(=O)O [RA-2Me, N^5-(o-Tolylamino)-L-glutamine] | 2.79 | 15 ± 4.92 | weak anti-inflammatory effects | – | –
4 | Cc1cccc(NNC(=O)CC[C@H](N)C(=O)O)c1 [RA-3Me, N^5-(m-Tolylamino)-L-glutamine] | 5.3 | 22.5 ± 0.69 | weak anti-inflammatory effects | – | –
5 | N[C@@H](CCC(=O)NNc1ccc(F)cc1)C(=O)O [RA-4F, N^5-((4-Fluorophenyl)amino)-L-glutamine] | 4.16 | 20.1 ± 4.78 | concentration-dependent NO inhibition | – | –
6 | N[C@@H](CCC(=O)NNc1ccc(F)cc1F)C(=O)O [RA-24F, N^5-((2,4-Difluorophenyl)amino)-L-glutamine] | 5.32 | – | concentration-dependent NO inhibition; also recorded: stronger anti-inflammatory effect than ramalin | without cytotoxicity | –
7 | Cc1ccc(C)c(NNC(=O)CC[C@H](N)C(=O)O)c1 [RA-25Me, N^5-((2,5-Dimethylphenyl)amino)-L-glutamine] | 4.5 | 9.81 ± 1.21 | concentration-dependent NO inhibition | – | –
8 | Cc1ccc(NNC(=O)CC[C@H](N)C(=O)O)cc1C [RA-34Me, N^5-((3,4-Dimethylphenyl)amino)-L-glutamine] | 4.46 | 13.1 ± 1.52 | concentration-dependent NO inhibition | – | –
9 | N[C@@H](CCC(=O)NNc1c(F)c(F)c(F)c(F)c1F)C(=O)O [RA-PF, N^5-((Perfluorophenyl)amino)-L-glutamine] | – | 14.6 ± 6.08 | concentration-dependent NO inhibition | – | –
10 | NC(CCC(=O)NNc1ccccc1O)C(=O)O (stereo not drawn) [Ramalin, ramalin] | – | – | – | – | 83
